Laboratory results: PubChem BioAssay AID2060508 (Molecular Pharmacology Branch, DTP, NCI, 2025)

Test system: 454973-116-R2-J3-PDC spheroids, viability, % test/control
Assay: Anticancer human tumor 454973-116-R2-J3-PDC patient-derived pancreatic carcinoma cell line growth inhibition [GQUAD]
Settings: spheroids with HUVEC and MSC; for IC50: curve of first compound; for viability, T/C: stronger effect = lower value
Procedure, shortened: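 Multi-cell-type spheroids of tumor cells with HUVEC and mesenchymal stem cells, treated with drug combinations. Concentrations descend in half-log steps from near clinical Cmax, or from 10 microM where Cmax is unknown; viability read-out.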

[1] = second compound 0.0316 µM, first compound 0.0316 µM
[2] = second compound 0.0316 µM, first compound 0.1 µM
[3] = second compound 0.0316 µM, first compound 0.316 µM
[4] = second compound 0.0316 µM, first compound 1 µM
[5] = second compound 0.0316 µM, first compound 3.16 µM
[6] = second compound 0.0316 µM, first compound 10 µM
[7] = second compound 0.1 µM, first compound 0.0316 µM
[8] = second compound 0.1 µM, first compound 0.1 µM
[9] = second compound 0.1 µM, first compound 0.316 µM
[10] = second compound 0.1 µM, first compound 1 µM
[11] = second compound 0.1 µM, first compound 3.16 µM
[12] = second compound 0.1 µM, first compound 10 µM
[13] = second compound 0.316 µM, first compound 0.0316 µM
[14] = second compound 0.316 µM, first compound 0.1 µM
[15] = second compound 0.316 µM, first compound 0.316 µM
[16] = second compound 0.316 µM, first compound 1 µM
[17] = second compound 0.316 µM, first compound 3.16 µM
[18] = second compound 0.316 µM, first compound 10 µM
[19] = second compound 1 µM, first compound 0.0316 µM
[20] = second compound 1 µM, first compound 0.1 µM
[21] = second compound 1 µM, first compound 0.316 µM
[22] = second compound 1 µM, first compound 1 µM
[23] = second compound 1 µM, first compound 3.16 µM
[24] = second compound 1 µM, first compound 10 µM
[25] = second compound 3.16 µM, first compound 0.0316 µM
[26] = second compound 3.16 µM, first compound 0.1 µM
[27] = second compound 3.16 µM, first compound 0.316 µM
[28] = second compound 3.16 µM, first compound 1 µM
[29] = second compound 3.16 µM, first compound 3.16 µM
[30] = second compound 3.16 µM, first compound 10 µM
[31] = second compound 10 µM, first compound 0.0316 µM
[32] = second compound 10 µM, first compound 0.1 µM
[33] = second compound 10 µM, first compound 0.316 µM
[34] = second compound 10 µM, first compound 1 µM
[35] = second compound 10 µM, first compound 3.16 µM
[36] = second compound 10 µM, first compound 10 µM
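Note: spheroids exposed to compounds for seven days.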
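Throughout, for viability, T/C: 100% = DMSO vehicle control viability.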

Compound `C#Cc1c(F)ccc2cc(O)cc(-c3ncc4c(N5CC6CCC(C5)N6)nc(OCC56CCCN5CC(F)C6)nc4c3F)c12` (stereo not drawn) + Cc1cnc(CNC(=O)c2c(=O)c3ccc(N4CCCN(C)CC4)nc3n3c2sc2ccccc23)cn1 has an IC50 (second compound 0.0316 µM) of less than 31.6 nM, an IC50 (second compound 0.1 µM) of less than 31.6 nM and an IC50 (second compound 0.316 µM) of less than 31.6 nM. It also gave an IC50 (second compound 1 µM) of less than 31.6 nM, an IC50 (second compound 3.16 µM) of less than 31.6 nM and an IC50 (second compound 10 µM) of less than 31.6 nM. For the same compound, the viability, T/C [1] was 45.9%, the viability, T/C [2] was 40.8% and the viability, T/C [3] was 28.3%. It also gave a viability, T/C [4] of 23.2%, a viability, T/C [5] of 20.3% and a viability, T/C [6] of 17.8%. For the same compound, the viability, T/C [7] was 41.9%, the viability, T/C [8] was 33.3% and the viability, T/C [9] was 24%. It also gave a viability, T/C [10] of 20.1%, a viability, T/C [11] of 17.1% and a viability, T/C [12] of 16.1%. It also gave a viability, T/C [13] of 41.7%, a viability, T/C [14] of 24.4% and a viability, T/C [15] of 17.4%. It also gave a viability, T/C [16] of 17.1%, a viability, T/C [17] of 14.3% and a viability, T/C [18] of 11.4%. For the same compound, the viability, T/C [19] was 36.6%, the viability, T/C [20] was 24.2% and the viability, T/C [21] was 19%. It also gave a viability, T/C [22] of 16.5%, a viability, T/C [23] of 13.2% and a viability, T/C [24] of 10.7%. For the same compound, the viability, T/C [25] was 36.5%, the viability, T/C [26] was 22.6% and the viability, T/C [27] was 19.3%. The viability, T/C [28] was 12.6%, the viability, T/C [29] was 9.16% and the viability, T/C [30] was 4.35%. For the same compound, the viability, T/C [31] was 0.16%, the viability, T/C [32] was 0.43% and the viability, T/C [33] was 0.47%. It also gave a viability, T/C [34] of 0.12%, a viability, T/C [35] of 0.27% and a viability, T/C [36] of 0.18%.
In the case of `CC(=O)O[C@H]1C(=O)[C@@]2(C)[C@H]([C@H](OC(=O)c3ccccc3)[C@]3(O)C[C@H](OC(=O)[C@H](O)[C@@H](NC(=O)c4ccccc4)c4ccccc4)C(C)=C1C3(C)C)[C@]1(OC(C)=O)CO[C@@H]1C[C@@H]2O` + Cc1cnc(CNC(=O)c2c(=O)c3ccc(N4CCCN(C)CC4)nc3n3c2sc2ccccc23)cn1, the IC50 (second compound 0.0316 µM) is reported as less than 31.6 nM, the IC50 (second compound 0.1 µM) is reported as less than 31.6 nM and the IC50 (second compound 0.316 µM) is reported as less than 31.6 nM. It also gave an IC50 (second compound 1 µM) of less than 31.6 nM, an IC50 (second compound 3.16 µM) of less than 31.6 nM and an IC50 (second compound 10 µM) of less than 31.6 nM. The viability, T/C [1] was 17.2%, the viability, T/C [2] was 12.7% and the viability, T/C [3] was 10.7%. It also gave a viability, T/C [4] of 7.9%, a viability, T/C [5] of 9.07% and a viability, T/C [6] of 11.3%. It also gave a viability, T/C [7] of 20.6%, a viability, T/C [8] of 16.3% and a viability, T/C [9] of 9.56%. For the same compound, the viability, T/C [10] was 9.77%, the viability, T/C [11] was 11.2% and the viability, T/C [12] was 15.5%. The viability, T/C [13] was 27.5%, the viability, T/C [14] was 17.2% and the viability, T/C [15] was 17.9%. It also gave a viability, T/C [16] of 15.7%, a viability, T/C [17] of 15.3% and a viability, T/C [18] of 19.6%. For the same compound, the viability, T/C [19] was 33.9%, the viability, T/C [20] was 28.3% and the viability, T/C [21] was 23.3%. It also gave a viability, T/C [22] of 25.7%, a viability, T/C [23] of 24.8% and a viability, T/C [24] of 30.4%. The viability, T/C [25] was 42.4%, the viability, T/C [26] was 36.2% and the viability, T/C [27] was 32.1%. For the same compound, the viability, T/C [28] was 26.5%, the viability, T/C [29] was 34.1% and the viability, T/C [30] was 37.1%. The viability, T/C [31] was 0.12%, the viability, T/C [32] was 1.08% and the viability, T/C [33] was 0.19%. For the same compound, the viability, T/C [34] was 0.17%, the viability, T/C [35] was 0.19% and the viability, T/C [36] was 0.21%.
Compound `CCCS(=O)(=O)Nc1ccc(F)c(C(=O)c2c[nH]c3ncc(-c4ccc(Cl)cc4)cc23)c1F` + Cc1cnc(CNC(=O)c2c(=O)c3ccc(N4CCCN(C)CC4)nc3n3c2sc2ccccc23)cn1 has an IC50 (second compound 0.0316 µM) of 6440 nM, an IC50 (second compound 0.1 µM) of 5990 nM and an IC50 (second compound 0.316 µM) of 5080 nM. It also gave an IC50 (second compound 1 µM) of 4250 nM, an IC50 (second compound 3.16 µM) of 5130 nM and an IC50 (second compound 10 µM) of less than 31.6 nM. For the same compound, the viability, T/C [1] was 94.2%, the viability, T/C [2] was 105% and the viability, T/C [3] was 117%. It also gave a viability, T/C [4] of 106%, a viability, T/C [5] of 117% and a viability, T/C [6] of 14.1%. For the same compound, the viability, T/C [7] was 77.4%, the viability, T/C [8] was 88% and the viability, T/C [9] was 99%. It also gave a viability, T/C [10] of 94.6%, a viability, T/C [11] of 95.2% and a viability, T/C [12] of 17.3%. For the same compound, the viability, T/C [13] was 70.7%, the viability, T/C [14] was 73.4% and the viability, T/C [15] was 79.5%. It also gave a viability, T/C [16] of 96%, a viability, T/C [17] of 70.9% and a viability, T/C [18] of 20.2%. It also gave a viability, T/C [19] of 65.9%, a viability, T/C [20] of 71.9% and a viability, T/C [21] of 80.2%. The viability, T/C [22] was 66.4%, the viability, T/C [23] was 60.2% and the viability, T/C [24] was 21.9%. For the same compound, the viability, T/C [25] was 55.1%, the viability, T/C [26] was 62.2% and the viability, T/C [27] was 72.3%. The viability, T/C [28] was 67.9%, the viability, T/C [29] was 68.3% and the viability, T/C [30] was 29.2%. It also gave a viability, T/C [31] of 0.45%, a viability, T/C [32] of 18.1% and a viability, T/C [33] of 28.6%. The viability, T/C [34] was 35.6%, the viability, T/C [35] was 0.54% and the viability, T/C [36] was 0.2%.
In the case of `Nc1ccn(C2OC(CO)C(O)C2(F)F)c(=O)n1` (stereo not drawn) + Cc1cnc(CNC(=O)c2c(=O)c3ccc(N4CCCN(C)CC4)nc3n3c2sc2ccccc23)cn1, the IC50 (second compound 0.0316 µM) is reported as less than 31.6 nM, the IC50 (second compound 0.1 µM) is reported as less than 31.6 nM and the IC50 (second compound 0.316 µM) is reported as less than 31.6 nM. The IC50 (second compound 1 µM) was less than 31.6 nM, the IC50 (second compound 3.16 µM) was less than 31.6 nM and the IC50 (second compound 10 µM) was less than 31.6 nM. It also gave a viability, T/C [1] of 18.9%, a viability, T/C [2] of 15.8% and a viability, T/C [3] of 17.5%. The viability, T/C [4] was 16.6%, the viability, T/C [5] was 14.2% and the viability, T/C [6] was 14.4%. It also gave a viability, T/C [7] of 22.7%, a viability, T/C [8] of 16.1% and a viability, T/C [9] of 15.6%. The viability, T/C [10] was 21.5%, the viability, T/C [11] was 17.8% and the viability, T/C [12] was 13.8%. For the same compound, the viability, T/C [13] was 30.5%, the viability, T/C [14] was 19.5% and the viability, T/C [15] was 18.4%. The viability, T/C [16] was 16.1%, the viability, T/C [17] was 20.2% and the viability, T/C [18] was 23.2%. It also gave a viability, T/C [19] of 43.7%, a viability, T/C [20] of 24.6% and a viability, T/C [21] of 24%. It also gave a viability, T/C [22] of 24.2%, a viability, T/C [23] of 22.9% and a viability, T/C [24] of 21.8%. For the same compound, the viability, T/C [25] was 45.5%, the viability, T/C [26] was 29.6% and the viability, T/C [27] was 30.5%. The viability, T/C [28] was 24.8%, the viability, T/C [29] was 32.8% and the viability, T/C [30] was 28.5%. It also gave a viability, T/C [31] of 0.17%, a viability, T/C [32] of 9.59% and a viability, T/C [33] of 26.2%. For the same compound, the viability, T/C [34] was 7.48%, the viability, T/C [35] was 0.89% and the viability, T/C [36] was 0.22%.
